Assay results from PubChem BioAssay AID248 (DTP/NCI, 2004).
Values joined by “and” are separate entries in the source; they are usually repeats but may differ in a detail not shown here. Equal entries are not always repeated. Inconclusive results and toxic doses are left out. Cut-off read from the data, not from the text of the source: active = T/C of 150% or more; inactive = T/C below 125%.

System: L1210 leukemia ip in BDF1 mice, survival T/C
Assay: NCI In Vivo Anticancer Drug Screen. Data for tumor model L1210 Leukemia (intraperitoneal) in B6D2F1 (BDF1) mice
Conditions: endpoint: mean survival time, schedule: Q01DX009 (ip), vehicle: saline with Tween-80, higher = longer survival
Outline: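 Ratio derived from survival: compound-dosed mice over vehicle-dosed mice, all bearing a transplantable tumor.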

Measured: T/C

O=C(O)C(Br)C(Br)C(=O)Nc1cccc2ccccc12 (stereo not drawn)
inactive: dose: 25.0 mg/kg/injection 97 % of control | dose: 50.0 mg/kg/injection 96 % of control | dose: 100.0 mg/kg/injection 96 % of control and 98 % of control
